Reference: PMC8625065 (Molecules, 2021)
Counter-ions that a name gives are not always drawn.

Key:
[1] = tested on: A549 (lung adenocarcinoma); assay: MTT proliferation assay, 72 h; type: cell-based; settings: Homo sapiens, A549 cells
Procedure: (§1) The cell lines HeLa (cervical carcinoma), SW620 (colorectal adenocarcinoma, metastatic), A549 (lung adenocarcinoma), HepG2 (hepatocellular carcinoma) and HFF (human foreskin fibroblasts) were cultured as monolayers and maintained in Dulbecco’s modified Eagle medium (DMEM), supplemented with 10% fetal bovine serum (FBS), 2mM L-glutamine, 100 U/mL penicillin and 100 μg/mL streptomycin in a humidified atmosphere with 5% CO2 at 37 °C.
(§2) Cells were seeded onto 96-well microtiter plates at a seeding density of 3000 cells/well for carcinoma cell lines, and 5000 cells/well for normal human fibroblasts. The next day, cells were treated with test agents at five different concentrations (0.01–100 µM) and further incubated for 72 h. […] Following 72 h incubation, the MTT assay was performed and measured absorbances were transformed into percentage of cell growth as described previously. Results were obtained from three independent experiments.

[2] = tested on: HeLa (cervical carcinoma); assay: MTT proliferation assay, 72 h; type: cell-based, human; settings: Homo sapiens; HeLa cells, MTT, 72 h
Procedure: as §1, §2

[3] = tested on: HepG2 (hepatocellular carcinoma); assay: MTT proliferation assay, 72 h; type: cell-based, human; settings: Homo sapiens; HepG2 cells, MTT, 72 h
Procedure: as §1, §2

[4] = tested on: SW620 (colorectal adenocarcinoma, metastatic); assay: MTT proliferation assay, 72 h; type: cell-based, human; settings: Homo sapiens, SW-620; SW620 cells, MTT, 72 h
Procedure: as §1, §2

[5] = tested on: HFF (human foreskin fibroblasts); assay: MTT proliferation assay, 72 h, non-tumor cells; type: cell-based; parameters: selectivity index (SI): reference not given here; settings: for IC50: Homo sapiens, Fibroblast, non-tumor HFF fibroblasts, MTT, 72 h; for selectivity index (SI): normal HFF fibroblasts versus tumor cells
Procedure: as §1, §2

p(dAdT)2 (AT-DNA) = assay: Fluorimetric titration, Scatchard processing; type: binding; settings: p(dAdT)2, pH 7.0, sodium cacodylate buffer, I = 0.05 mol dm^-3
Procedure: Compound solutions were used for measurements in aqueous buffer (pH = 7, sodium cacodylate buffer, I = 0.05 mol dm^−3). Polynucleotides were purchased as noted: poly A-poly U, poly (dAdT)2 and calf thymus (ct)DNA (Sigma-Aldrich). Polynucleotides were dissolved in Na-cacodylate buffer, I = 0.05 mol dm^−3, pH = 7. The calf thymus ctDNA was additionally sonicated and filtered through a […]. Polynucleotide concentration was determined spectroscopically as the concentration of phosphates.
Fluorescence spectra were recorded on a Varian Cary Eclipse spectrophotometer at 25 °C using appropriate 1cm path quartz cuvettes. Fluorometric experiments were performed at pH = 7 (I = 0.05 mol dm^−3, sodium cacodylate buffer) by adding portions of polynucleotide solution into the solution of the studied compound. In fluorometric experiments, an excitation wavelength of λexc ≥ 300 nm was used to avoid the inner filter effect caused due to increasing absorbance of the polynucleotide. Emissions were determined in the range λem = 300–600 nm. Values for Ks obtained by processing titration data using the Scatchard equation [40], in most titrations have satisfactory correlation coefficients (≥0.98).

ctDNA = assay: Thermal melting experiment; type: binding, calf; settings: r = [compound]/[polynucleotide] = 0.3, pH 7.0, error ±0.5 °C
Procedure: (§3) Compound solutions were used for measurements in aqueous buffer (pH = 7, sodium cacodylate buffer, I = 0.05 mol dm^−3). Polynucleotides were purchased as noted: poly A-poly U, poly (dAdT)2 and calf thymus (ct)DNA (Sigma-Aldrich). Polynucleotides were dissolved in Na-cacodylate buffer, I = 0.05 mol dm^−3, pH = 7. The calf thymus ctDNA was additionally sonicated and filtered through a […]. Polynucleotide concentration was determined spectroscopically as the concentration of phosphates. UV–Vis spectra were recorded on a Varian Cary 100 Bio spectrophotometer using 1cm path quartz cuvettes. Calibration experiments were performed at 25 °C and pH = 7 (I = 0.05 mol dm^−3, sodium cacodylate buffer). Thermal melting curves for DNA and their complexes with studied compounds were determined as previously described by following the absorption change at 260 nm as a function of temperature. The absorbance of the ligands was subtracted from every curve and the absorbance scale was normalized. Tm values are the midpoints of the transition curves determined from the maximum of the first derivative and checked graphically by the tangent method. The ΔTm values were calculated by subtracting the Tm of the free nucleic acid from the Tm of the complex. Every ΔTm value reported here was the average of at least two measurements. The error in ΔTm is ±0.5 °C.

poly A-poly U = assay: Thermal melting experiment; type: binding; settings: r = 0.3, pH 7.0, error ±0.5 °C
Procedure: as §3

poly(dAdT)2 = assay: Thermal melting experiment; type: binding; settings: poly(dAdT)2, r = 0.3, pH 7.0; error ±0.5 °C
Procedure: as §3

[6] = tested on: poly (dAdT)2 (DNA, polymer) AT; assay: fluorescence titration, Scatchard; settings: Na+ (sodium cacodylate, I = 0.05 M); sodium cacodylate buffer pH 7.0, 25 °C; polynucleotide concentration as phosphates; per base
[7] = tested on: poly (dAdT)2 (DNA, polymer) AT; assay: UV thermal melting, 260 nm; settings: Na+ (sodium cacodylate, I = 0.05 M); sodium cacodylate buffer pH 7
[8] = tested on: poly A-poly U (RNA, polymer) A/U; assay: fluorescence titration, Scatchard; settings: Na+ (sodium cacodylate, I = 0.05 M); sodium cacodylate buffer pH 7.0, 25 °C; polynucleotide concentration as phosphates; per base

Structure (SMILES)	IC50 [1] [µM]	IC50 [2] [µM]	IC50 [3] [µM]	IC50 [4] [µM]	melting point [°C]	also measured
N/C(=N\O)c1ccc(-n2cc(COc3ccc4ccc(=O)oc4c3)nn2)cc1 [Compound 22, 7-((1-(4-((Z)-N′-Hydroxycarbamimidoyl)phenyl)-1H-1,2,3-triazol-4-yl)methoxy)coumarin]	> 100	87.4	91.4	> 100	232 to 235	
c1cc(-n2cc(Cn3ccc4cc(C5=NCCN5)ccc43)nn2)ccc1C1=NCCN1 [Compound 7, 1-((1-(4-(Dihydro-1H-imidazol-2-yl)phenyl)-1H-1,2,3-triazol-4-yl)methyl)-5-(dihydro-1H-imidazol-2-yl)-1H-indole dihydrochloride]	> 100	> 100	69.1	49.8		
N/C(=N\O)c1ccc(OCc2cn(-c3ccc(/C(N)=N/O)cc3)nn2)cc1 [Compound 13, (Z)-N′-Hydroxy-4-(4-((4-((Z)-N′-hydroxycarbamimidoyl)phenoxy)methyl)-1H-1,2,3-triazol-1-yl)benzimidamide]	> 100	> 100	> 100	> 100	218 to 221	
N/C(=N\O)c1ccc(-n2cc(COc3cccc4cccnc34)nn2)cc1 [Compound 19, 8-((1-(4-((Z)-N′-Hydroxycarbamimidoyl)phenyl)-1H-1,2,3-triazol-4-yl)methoxy)quinoline]	76.7	64.5	> 100	72.7	230 to 232	
O=c1[nH]cc(F)c(=O)[nH]1 [Compound 5-FU, 5-Fluorouracil, reference compound]	2.8	8.81		0.08		
c1cc(-n2cc(Cn3ccc4cc(C5=NCCN5)ccc43)nn2)ccc1C1=NCCN1 (as salt: hydrochloride) [Compound 7, 1-((1-(4-(Dihydro-1H-imidazol-2-yl)phenyl)-1H-1,2,3-triazol-4-yl)methyl)-5-(dihydro-1H-imidazol-2-yl)-1H-indole dihydrochloride]					228 to 231	
N/C(=N\O)c1ccc(-n2cc(Cn3ccc4c(/C(N)=N/O)cccc43)nn2)cc1 [Compound 15, (Z)-N′-hydroxy-1-((1-(4-((Z)-N′-hydroxycarbamimidoyl)phenyl)-1H-1,2,3-triazol-4-yl)methyl)-1H-indole-4-carboximidamide]	> 100	> 100	> 100	> 100	229 to 232	
Cl.c1cnc2c(NCc3cn(-c4ccc(C5=NCCN5)cc4)nn3)cccc2c1 [Compound 8, 8-(((1-(4-(4,5-Dihydro-1H-imidazol-2-yl)phenyl)-1H-1,2,3-triazol-4-yl)methyl)amino)-quinoline hydrochloride]	29.1	23.8	4.84	35.6	192 to 196	IC50 [5]: 11.7 µM; selectivity index (SI) [5]: 2; logKs (p(dAdT)2 (AT-DNA)): 5.5; ΔTm (ctDNA): 0 °C; ΔTm (poly A-poly U): 0 °C; ΔTm (poly(dAdT)2): 1 °C; logKs [6]: 5.5
N/C(=N\O)c1ccc(-n2cc(CNc3cccc4cccnc34)nn2)cc1 [Compound 18, 8-(((1-(4-((Z)-N′-Hydroxycarbamimidoyl)phenyl)-1H-1,2,3-triazol-4-yl)methyl)amino)quinoline]	6.52	25.6	> 100			IC50 [5]: 9.81 µM
N#Cc1ccc(NCc2cn(-c3ccc(/C(N)=N/O)cc3)nn2)cc1 [Compound 12, 4-(((1-(4-((Z)-N′-Hydroxycarbamimidoyl)phenyl)-1H-1,2,3-triazol-4-yl)methyl)amino)benzonitrile]	> 100	> 100	> 100	65.1	222 to 225	
c1cc(C2=NCCN2)c2ccn(Cc3cn(-c4ccc(C5=NCCN5)cc4)nn3)c2c1						binding [7]: yes; logKs [6]: 6.6; logKs [8]: 4.2
N/C(=N\O)c1ccc(-n2cc(Cn3ccc4cc(/C(N)=N/O)ccc43)nn2)cc1 [Compound 17, (Z)-N′-hydroxy-1-((1-(4-((Z)-N′-hydroxycarbamimidoyl)phenyl)-1H-1,2,3-triazol-4-yl)methyl)-indole-5-carboximidamide]	> 100	60.7	> 100	> 100	232 to 234	

Further lines, with some results ahead:

IC50 [1] [µM]	IC50 [2] [µM]	IC50 [3] [µM]	IC50 [4] [µM]	melting point [°C]	Structure (SMILES)	also measured
> 100	65.8	> 100	> 100		N#Cc1cccc2c1ccn2Cc1cn(-c2ccc(/C(N)=N/O)cc2)nn1 [Compound 14, 1-((1-(4-((Z)-N′-Hydroxycarbamimidoyl)phenyl)-1H-1,2,3-triazol-4-yl)methyl)-4-cyanoindole]	
> 100	> 100	> 100	> 100		N#Cc1ccc2c(ccn2Cc2cn(-c3ccc(/C(N)=N/O)cc3)nn2)c1 [Compound 16, 1-((1-(4-((Z)-N′-Hydroxycarbamimidoyl)phenyl)-1H-1,2,3-triazol-4-yl)methyl)-5-cyanoindole]	
> 100	99.7	> 100	> 100	235 to 237	N/C(=N\O)c1ccc(-n2cc(COc3cc(=O)oc4ccccc34)nn2)cc1 [Compound 21, 4-((1-(4-((Z)-N′-Hydroxycarbamimidoyl)phenyl)-1H-1,2,3-triazol-4-yl)methoxy)coumarin]	
46.7	41.2	48.9	61.9	> 250	Cl.Cl.c1cc(C2=NCCN2)ccc1NCc1cn(-c2ccc(C3=NCCN3)cc2)nn1 [Compound 4, 1-(4-(4,5-Dihydro-1H-imidazol-2-yl)-phenyl)-4-((4-(4,5-dihydro-1H-imidazol-2-yl)phenyl)aminomethyl)-1H-1,2,3-triazole dihydrochloride]	selectivity index (SI) [5]: 2
				> 250	c1cc(C2=NCCN2)c2ccn(Cc3cn(-c4ccc(C5=NCCN5)cc4)nn3)c2c1 (as salt: hydrochloride) [Compound 6, 1-((1-(4-(Dihydro-1H-imidazol-2-yl)phenyl)-1H-1,2,3-triazol-4-yl)methyl)-4-(dihydro-1H-imidazol-2-yl)-1H-indole dihydrochloride]	
